Data on 20 compounds can be found in US9296741B2, “Bromodomain inhibitors” (priority 2012, dated 2016).

pEC50, pKi: −log10 of the molar value.

Series [1] has as its target human BRD4 second bromodomain (BDII_E352-M457) (Homo sapiens (Human), UniProt O60885). Kind of series: TR-FRET bromodomain binding assay, BRD4 second bromodomain.
Series [2] concerns the target human BRD4 first bromodomain (BDI_K57-E168) (Homo sapiens (Human), UniProt O60885). Kind of series: TR-FRET bromodomain binding assay, BRD4 first bromodomain.
Series [3] concerns breast cancer cell line MX-1. The series can be described thus: MX-1 cell line proliferation assay. The format is cell-based, human. Conditions: Homo sapiens, MX1, 72 h; MX-1 cells, 3-day proliferation, Cell Titer Glo; read-out: Cellular proliferation: EC50.
Series [4] relates to LPS induced IL-6 production. Kind of series: LPS (lipopolysaccharide) induced IL-6 production mouse assay. Conditions: Mus musculus, read-out: Inhibition of LPS induced IL-6 production in Mice, % inhibition at 3 mg/kg; 3 mg/kg oral, 1 h before LPS; serum IL-6 2 h after LPS. Format: in vivo.
The nature of series [5]: Rat liver microsome stability assay. The format is in vitro ADME. Conditions: rat liver microsomes (male Sprague-Dawley), 0.5 μM test compound, 0.25 mg/mL microsomal protein, pH 7.4, 37° C.; read-out: Stability in rat liver microsomes (t1/2 in minutes). A general note: Microsomes from liver hold many membrane-bound enzymes, among them those of drug oxidation.
Series [6] in a line: Human liver microsome stability assay. Conditions: both sexes, human, microsomes, pH 7.4. The format is in vitro ADME.
Series [7] in a line: Mouse liver microsome stability assay. The format is in vitro ADME. Conditions: male, CD1, mouse, microsomes, pH 7.4.

As to `Cn1cc(-c2cc(NS(C)(=O)=O)ccc2Oc2ccc(F)cc2)c2cc[nH]c2c1=O` [Example 26, N-[4-(4-fluorophenoxy)-3-(6-methyl-7-oxo-6,7-dihydro-1H-pyrrolo[2,3-c]pyridin-4-yl)phenyl]methanesulfonamide], the pKi (as a rule, the negative decadic logarithm of the Ki, by convention in mol/L) in series [1] is 8.48; in series [2], 8.68. Also, the pEC50 in series [3] was 7.77. Besides, the inhibition in vivo at 3 mg/kg in series [4] worked out at 60%.

Take `CNS(=O)(=O)c1cnc(NCC2CC2)c(-c2cn(C)c(=O)c3[nH]ccc23)c1` [Example 210, 6-[(cyclopropylmethyl)amino]-N-methyl-5-(6-methyl-7-oxo-6,7-dihydro-1H-pyrrolo[2,3-c]pyridin-4-yl)pyridine-3-sulfonamide]: the half-life at 0.5 μM in series [5] was over 120 min; in series [6], 104 min; in series [7], over 120 min. In addition, the pEC50 in series [3] is 7.44. In addition, the inhibition in vivo at 3 mg/kg in series [4] was found to be 78%.

`CCS(=O)(=O)c1ccc(OCC2CC2)c(-c2nn(C)c(=O)c3[nH]ccc23)c1` [Example 204, 4-[2-(cyclopropylmethoxy)-5-(ethylsulfonyl)phenyl]-6-methyl-1,6-dihydro-7H-pyrrolo[2,3-d]pyridazin-7-one]: the half-life at 0.5 μM was 81 min in series [5], over 120 min in series [6] and 68 min in series [7]. The pEC50 in series [3] is 7.08. The inhibition in vivo at 3 mg/kg in series [4] came out at 35%.

As to `Cn1cc(-c2cc(S(C)(=O)=O)ccc2Oc2ccc(F)cc2)c2cc[nH]c2c1=O` [Example 151, 4-[2-(4-fluorophenoxy)-5-(methylsulfonyl)phenyl]-6-methyl-1,6-dihydro-7H-pyrrolo[2,3-c]pyridin-7-one], the pKi is 8.09 in series [1] and 7.97 in series [2]. The pEC50 in series [3] is 7.26. Moreover, the inhibition in vivo at 3 mg/kg in series [4] turned out to be 66%.

Take `Cn1cc(-c2cc(S(C)(=O)=O)ccc2Oc2cccc(F)c2)c2cc[nH]c2c1=O` [Example 150, 4-[2-(3-fluorophenoxy)-5-(methylsulfonyl)phenyl]-6-methyl-1,6-dihydro-7H-pyrrolo[2,3-c]pyridin-7-one]: the pKi in series [1] was 8.38; in series [2] it was 8.01. In addition, the pEC50 in series [3] was 7.18. Moreover, the inhibition in vivo at 3 mg/kg in series [4] stood at 54%.

Regarding `CCS(=O)(=O)c1ccc(O[C@H]2CC[C@H](O)CC2)c(-c2cn(C)c(=O)c3[nH]ccc23)c1` [Example 203, 4-{5-(ethylsulfonyl)-2-[(trans-4-hydroxycyclohexyl)oxy]phenyl}-6-methyl-1,6-dihydro-7H-pyrrolo[2,3-c]pyridine-7-one], the pKi in series [1] was 9.12; in series [2] it was 9.16. In series [5], the half-life at 0.5 μM is over 120 min. The pEC50 in series [3] is 8.33. Further, in series [4], the inhibition in vivo at 3 mg/kg was 78%.

Take `Cn1cc(-c2cc(S(N)(=O)=O)cnc2OC2CCOC2)c2cc[nH]c2c1=O` (stereo not drawn) [Example 86, 5-(6-methyl-7-oxo-6,7-dihydro-1H-pyrrolo[2,3-c]pyridin-4-yl)-6-(tetrahydrofuran-3-yloxy)pyridine-3-sulfonamide]: the half-life at 0.5 μM in series [5] is over 120 min; in series [6], over 120 min; in series [7] it was 43 min. For the same compound, in series [3], the pEC50 was 6.74. The inhibition in vivo at 3 mg/kg in series [4] came out at 55%.

As for `Cn1cc(-c2cc(NS(C)(=O)=O)cc(F)c2Oc2ccccc2)c2cc[nH]c2c1=O` [Example 24, N-[3-fluoro-5-(6-methyl-7-oxo-6,7-dihydro-1H-pyrrolo[2,3-c]pyridin-4-yl)-4-phenoxyphenyl]methanesulfonamide], the half-life at 0.5 μM in series [5] was found to be 5 min; in series [6] it was 29 min; in series [7] it was 55 min. Further, the pEC50 in series [3] was 7.90. Also, in series [4], the inhibition in vivo at 3 mg/kg came out at 58%.

For the compound `CNS(=O)(=O)c1cnc(OC2CCOC2)c(-c2cn(C)c(=O)c3[nH]ccc23)c1` (stereo not drawn) [Example 87, N-methyl-5-(6-methyl-7-oxo-6,7-dihydro-1H-pyrrolo[2,3-c]pyridin-4-yl)-6-(tetrahydrofuran-3-yloxy)pyridine-3-sulfonamide], the half-life at 0.5 μM is 23 min in series [5] and over 120 min in series [6]. In addition, the pEC50 in series [3] was 7.27. Moreover, the inhibition in vivo at 3 mg/kg in series [4] came to 57%.

Turning to `CNS(=O)(=O)c1cnc(Oc2ccc(F)cc2F)c(-c2cn(C)c(=O)c3[nH]ccc23)c1` [Example 246, 6-(2,4-difluorophenoxy)-N-methyl-5-(6-methyl-7-oxo-6,7-dihydro-1H-pyrrolo[2,3-c]pyridin-4-yl)pyridine-3-sulfonamide], the half-life at 0.5 μM in series [5] is 53 min; in series [6] it was 52 min; in series [7], 56 min. In addition, in series [3], the pEC50 was 7.01. Further, the inhibition in vivo at 3 mg/kg in series [4] was 71%.

With `Cn1cc(-c2cc(S(C)(=O)=O)ccc2NC2CCOC2)c2cc[nH]c2c1=O` (stereo not drawn) [Example 167, 6-methyl-4-[5-(methylsulfonyl)-2-(tetrahydrofuran-3-ylamino)phenyl]-1,6-dihydro-7H-pyrrolo[2,3-c]pyridin-7-one], the results for the pKi in series [1] and in series [2] were 7.91 and 8.19, respectively. The pEC50 in series [3] is 7.37. In addition, the inhibition in vivo at 3 mg/kg in series [4] was found to be 64%.

Regarding `Cn1cc(-c2cc(NS(C)(=O)=O)cc(Cl)c2Oc2ccccc2)c2cc[nH]c2c1=O` [Example 28, N-[3-chloro-5-(6-methyl-7-oxo-6,7-dihydro-1H-pyrrolo[2,3-c]pyridin-4-yl)-4-phenoxyphenyl]methanesulfonamide], the half-life at 0.5 μM worked out at 9 min in series [5] and 21 min in series [6]. The pEC50 in series [3] is 7.62. Moreover, the inhibition in vivo at 3 mg/kg in series [4] turned out to be 52%.

On to `CCS(=O)(=O)c1ccc(O[C@H]2CC[C@@H](O)CC2)c(-c2cn(C)c(=O)c3[nH]ccc23)c1` [Example 202, 4-{5-(ethylsulfonyl)-2-[(cis-4-hydroxycyclohexyl)oxy]phenyl}-6-methyl-1,6-dihydro-7H-pyrrolo[2,3-c]pyridin-7-one], for which the pKi was 8.85 in series [1] and 8.77 in series [2]. The half-life at 0.5 μM in series [5] was over 120 min. Moreover, the pEC50 in series [3] was 7.64. Besides, in series [4], the inhibition in vivo at 3 mg/kg came out at 68%.

Regarding `Cn1cc(-c2cc(S(C)(=O)=O)ccc2Oc2ccccc2F)c2cc[nH]c2c1=O` [Example 149, 4-[2-(2-fluorophenoxy)-5-(methylsulfonyl)phenyl]-6-methyl-1,6-dihydro-7H-pyrrolo[2,3-c]pyridin-7-one], the pKi in series [1] is 8.52; in series [2], 7.94. For the same compound, the pEC50 in series [3] was 7.53. The inhibition in vivo at 3 mg/kg in series [4] amounted to 69%.

For the compound `CCS(=O)(=O)Nc1ccc(Oc2ccc(F)cc2F)c(-c2nn(C)c(=O)c3[nH]ccc23)c1` [Example 160, N-[4-(2,4-difluorophenoxy)-3-(6-methyl-7-oxo-6,7-dihydro-1H-pyrrolo[2,3-d]pyridazin-4-yl)phenyl]ethanesulfonamide], the half-life at 0.5 μM in series [5] came out at 119 min; in series [6] it was 67 min; in series [7] it was 21 min. Also, the pEC50 in series [3] was 6.92. For the same compound, the inhibition in vivo at 3 mg/kg in series [4] was determined as 51%.

On to `Cn1cc(-c2cc(CS(C)(=O)=O)ccc2NCC2CC2)c2cc[nH]c2c1=O` [Example 328, 4-{2-[(cyclopropylmethyl)amino]-5-[(methylsulfonyl)methyl]phenyl}-6-methyl-1,6-dihydro-7H-pyrrolo[2,3-c]pyridin-7-one], for which the half-life at 0.5 μM in series [5] was 36 min; in series [6], over 120 min; in series [7], over 120 min. In addition, in series [3], the pEC50 was 7.37. In addition, in series [4], the inhibition in vivo at 3 mg/kg worked out at 40%.

Regarding `Cn1cc(-c2cc(S(C)(=O)=O)ccc2NCC2CC2)c2cc[nH]c2c1=O` [Example 329, 4-{2-[(cyclopropylmethyl)amino]-5-(methylsulfonyl)phenyl}-6-methyl-1,6-dihydro-7H-pyrrolo[2,3-c]pyridin-7-one], the half-life at 0.5 μM in series [5], in series [6] and in series [7] was over 120 min throughout. The pEC50 in series [3] is 7.77. In addition, the inhibition in vivo at 3 mg/kg in series [4] is 63%.

On to `Cn1cc(-c2cc(S(C)(=O)=O)ccc2Oc2cccc(C#N)c2)c2cc[nH]c2c1=O` [Example 155, 3-[2-(6-methyl-7-oxo-6,7-dihydro-1H-pyrrolo[2,3-c]pyridin-4-yl)-4-(methylsulfonyl)phenoxy]benzonitrile], for which the pKi is 7.83 in series [1] and 7.71 in series [2]. The half-life at 0.5 μM in series [5] was over 120 min; in series [6], over 120 min; in series [7] it was 25 min. Moreover, the pEC50 in series [3] is 6.93.

For `COC(=O)c1cc2c(-c3ccccc3Oc3ccccc3)cn(C)c(=O)c2[nH]1` [Example 67, methyl 6-methyl-7-oxo-4-(2-phenoxyphenyl)-6,7-dihydro-1H-pyrrolo[2,3-c]pyridine-2-carboxylate], the pKi was 7.03 in series [1] and 7.25 in series [2]. The half-life at 0.5 μM in series [5] is 5 min; in series [6] it was 6 min; in series [7], 6 min. Further, the pEC50 in series [3] is 6.47.

As to `Cn1cc(-c2cc(C(N)=O)ccc2Oc2ccc(F)cc2F)c2cc[nH]c2c1=O` [Example 50, 4-(2,4-difluorophenoxy)-3-(6-methyl-7-oxo-6,7-dihydro-1H-pyrrolo[2,3-c]pyridin-4-yl)benzamide], the pKi in series [1] is 8.09; in series [2], 7.67. The half-life at 0.5 μM amounted to 88 min in series [5], 35 min in series [6] and 46 min in series [7]. The pEC50 in series [3] is 6.69.
